For 3 compounds, IC50, Kd and inhibition in vivo results are on record in ChEMBL document CHEMBL6109154, “Development of Novel PRMT7 Inhibitors for the Treatment of Prostate Cancer” (J Med Chem, 2025).

Experiment [1] concerns the target Protein arginine N-methyltransferase 1 (Homo sapiens, UniProt Q99873). Briefly: Inhibition of N-terminal FLAG-tagged recombinant full length human PRMT1 extracted from baculovirus expression system preincubated for 10 mins followed by substrate addition and measured after 3 hrs by MTase-Glo detection reagent based luminescence analysis.
Experiment [2] concerns the target Protein arginine N-methyltransferase 3 (Homo sapiens, UniProt O60678). Nature of the experiment: Inhibition of N-terminal His-tagged recombinant human PRMT3 (2 to 531 residues) extracted from Escherichia coli preincubated for 10 mins followed by substrate addition and measured after 3 hrs by MTase-Glo detection reagent based luminescence analysis.
In experiment [3] the target is T1, Histone-arginine methyltransferase CARM1 (Homo sapiens, UniProt Q86X55).
T1 sequence (Q86X55 whole entry): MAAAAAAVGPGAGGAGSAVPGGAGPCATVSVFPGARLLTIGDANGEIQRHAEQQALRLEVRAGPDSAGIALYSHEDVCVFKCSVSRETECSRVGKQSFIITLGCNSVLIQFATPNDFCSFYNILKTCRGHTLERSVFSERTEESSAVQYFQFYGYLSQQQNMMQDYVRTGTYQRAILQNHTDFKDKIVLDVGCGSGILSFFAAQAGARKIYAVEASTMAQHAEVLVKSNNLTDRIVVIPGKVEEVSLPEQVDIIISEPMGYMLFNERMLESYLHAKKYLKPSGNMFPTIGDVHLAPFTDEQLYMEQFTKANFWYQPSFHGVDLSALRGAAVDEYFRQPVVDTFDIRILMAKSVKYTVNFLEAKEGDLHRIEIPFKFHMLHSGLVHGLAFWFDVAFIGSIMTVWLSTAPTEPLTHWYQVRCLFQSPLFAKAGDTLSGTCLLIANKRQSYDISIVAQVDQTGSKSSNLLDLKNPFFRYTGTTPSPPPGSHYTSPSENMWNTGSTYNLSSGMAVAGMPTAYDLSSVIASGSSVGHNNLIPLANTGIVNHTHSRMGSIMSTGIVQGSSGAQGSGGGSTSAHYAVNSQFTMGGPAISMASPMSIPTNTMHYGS
Nature of the experiment: Inhibition of N-terminal FLAG-tagged recombinant full length human PRMT4 extracted from baculovirus expression system preincubated for 10 mins followed by substrate addition and measured after 3 hrs by MTase-Glo detection reagent based luminescence analysis.

The target of experiment [4] is Protein arginine N-methyltransferase 6 (Homo sapiens, UniProt Q96LA8). Nature of the experiment: Inhibition of PRMT6 (unknown origin) preincubated for 10 mins followed by substrate addition and measured after 3 hrs by MTase-Glo detection reagent based luminescence analysis.
Chain of Protein arginine N-methyltransferase 6 (Q96LA8 whole entry, the tested form may be a part): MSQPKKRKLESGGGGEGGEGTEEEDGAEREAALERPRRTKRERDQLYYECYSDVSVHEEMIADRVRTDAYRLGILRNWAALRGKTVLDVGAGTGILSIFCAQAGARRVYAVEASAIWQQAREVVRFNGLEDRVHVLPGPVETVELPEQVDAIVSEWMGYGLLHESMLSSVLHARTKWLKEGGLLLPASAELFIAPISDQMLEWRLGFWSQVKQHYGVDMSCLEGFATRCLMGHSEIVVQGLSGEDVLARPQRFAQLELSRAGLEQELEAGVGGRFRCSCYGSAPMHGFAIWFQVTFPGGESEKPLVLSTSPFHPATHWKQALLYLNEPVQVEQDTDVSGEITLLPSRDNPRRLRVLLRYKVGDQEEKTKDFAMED
Experiment [5] addresses Protein arginine N-methyltransferase 8 (Homo sapiens, UniProt Q9NR22). Briefly: Inhibition of N-terminal His-tagged human PRMT8 (61 to 394 residues) extracted from Escherichia coli preincubated for 10 mins followed by substrate addition and measured after 3 hrs by MTase-Glo detection reagent based luminescence analysis.
Experiment [6] addresses T2, Protein arginine N-methyltransferase 9 (Homo sapiens, UniProt Q6P2P2).
T2 sequence (Q6P2P2 whole entry): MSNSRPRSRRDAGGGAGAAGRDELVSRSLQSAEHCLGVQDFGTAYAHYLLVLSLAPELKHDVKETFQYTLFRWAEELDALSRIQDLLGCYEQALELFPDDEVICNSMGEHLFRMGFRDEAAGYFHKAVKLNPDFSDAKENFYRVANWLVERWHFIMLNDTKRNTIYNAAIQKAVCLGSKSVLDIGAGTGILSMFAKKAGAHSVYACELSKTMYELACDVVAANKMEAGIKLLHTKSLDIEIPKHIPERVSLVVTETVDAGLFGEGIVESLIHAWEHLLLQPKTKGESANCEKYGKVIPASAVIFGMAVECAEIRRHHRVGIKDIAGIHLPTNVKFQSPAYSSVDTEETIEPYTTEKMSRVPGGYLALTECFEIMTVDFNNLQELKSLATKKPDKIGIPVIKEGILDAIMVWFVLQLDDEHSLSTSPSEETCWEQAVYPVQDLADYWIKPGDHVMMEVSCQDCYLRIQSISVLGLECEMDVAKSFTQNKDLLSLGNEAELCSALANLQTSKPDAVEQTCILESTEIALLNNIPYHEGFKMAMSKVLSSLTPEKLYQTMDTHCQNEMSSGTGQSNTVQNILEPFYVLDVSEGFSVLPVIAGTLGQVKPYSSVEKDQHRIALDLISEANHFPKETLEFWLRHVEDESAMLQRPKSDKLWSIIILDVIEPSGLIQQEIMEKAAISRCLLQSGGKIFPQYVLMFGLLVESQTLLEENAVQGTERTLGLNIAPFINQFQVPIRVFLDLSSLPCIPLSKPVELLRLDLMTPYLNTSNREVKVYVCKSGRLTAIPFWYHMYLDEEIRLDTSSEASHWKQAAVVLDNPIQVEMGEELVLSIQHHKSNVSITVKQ
Nature of the experiment: Inhibition of PRMT9 (unknown origin) incubated overnight by Alphascreen microplate reader. Background: Bead proximity is the source of the signal in Alpha formats.

Experiment [7] addresses T3, Protein arginine N-methyltransferase 7 (Homo sapiens, UniProt Q9NVM4).
T3 sequence (Q9NVM4 whole entry): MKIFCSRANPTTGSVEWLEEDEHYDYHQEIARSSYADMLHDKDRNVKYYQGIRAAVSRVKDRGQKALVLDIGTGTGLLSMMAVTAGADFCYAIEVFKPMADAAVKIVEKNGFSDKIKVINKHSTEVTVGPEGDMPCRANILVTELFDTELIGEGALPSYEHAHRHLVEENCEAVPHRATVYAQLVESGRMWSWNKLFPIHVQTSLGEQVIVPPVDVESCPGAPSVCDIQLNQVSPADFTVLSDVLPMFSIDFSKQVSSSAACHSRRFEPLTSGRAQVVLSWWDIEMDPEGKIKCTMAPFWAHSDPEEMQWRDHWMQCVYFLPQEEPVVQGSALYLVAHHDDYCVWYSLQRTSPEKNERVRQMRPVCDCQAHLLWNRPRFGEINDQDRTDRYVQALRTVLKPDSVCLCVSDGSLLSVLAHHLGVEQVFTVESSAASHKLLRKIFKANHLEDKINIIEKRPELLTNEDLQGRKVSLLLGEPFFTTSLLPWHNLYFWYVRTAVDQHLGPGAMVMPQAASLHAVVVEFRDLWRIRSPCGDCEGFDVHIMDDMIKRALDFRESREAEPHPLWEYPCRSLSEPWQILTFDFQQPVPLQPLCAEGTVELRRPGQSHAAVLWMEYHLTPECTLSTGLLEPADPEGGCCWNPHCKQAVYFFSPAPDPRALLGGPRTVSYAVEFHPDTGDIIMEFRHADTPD
Briefly: Inhibition of N-terminal FLAG-tagged recombinant human PRMT7 extracted from baculovirus infected Sf9 cells using Histone H4 (1 to 21) peptide as substrate preincubated for 15 mins followed by [3H]-SAM and substrate addition and measured after 180 mins by microplate counter analysis.

Experiment [8] concerns DU-145. Briefly: Antiproliferative activity against human DU-145 cells assessed as reduction in cell viability incubated for 48 hrs by CCK8 assay. Format: functional, cell-based. As to conditions: DU-145, 48 h. (In general: Tetrazolium dyes change colour on reduction, which living cells bring about.)
In experiment [9] the target is T3, Protein arginine N-methyltransferase 7. Briefly: Binding affinity to N-terminal GST-tagged recombinant full length human PRMT7 extracted from baculovirus infected Sf9 cells assessed as dissociation constant by SPR analysis. Background: In SPR one partner is held on a chip, and binding of the other changes the refractive index at the surface.
In the next experiment the test system is CWR22R. Briefly: Antiproliferative activity against human 22Rv1 cells assessed as reduction in cell viability incubated for 48 hrs by CCK8 assay. Conditions: 22Rv1, 48 h. Format: functional, cell-based.
A further experiment concerns PC-3. Briefly: Antiproliferative activity against human PC-3 cells assessed as reduction in cell viability incubated for 48 hrs by CCK8 assay. Format: functional, cell-based. Conditions: PC-3, 48 h.
A further experiment has as its system VCaP. Briefly: Antiproliferative activity against human VCaP cells assessed as reduction in cell viability incubated for 48 hrs by CCK8 assay. Format: functional, cell-based.
Experiment [10] has as its system DU-145. Briefly: Antitumor activity against human DU-145 cells xenografted in male BALB/c nude mouse assessed as tumor growth inhibition at 20 mg/kg, ip relative to control. As to conditions: DU-145, read-out: TGI.

In general, IC50 refers to the midpoint of a concentration-inhibition curve. Usually Kd stands for the equilibrium constant for the complex coming apart.

Chain of Protein arginine N-methyltransferase 8 (Q9NR22 whole entry, the tested form may be a part): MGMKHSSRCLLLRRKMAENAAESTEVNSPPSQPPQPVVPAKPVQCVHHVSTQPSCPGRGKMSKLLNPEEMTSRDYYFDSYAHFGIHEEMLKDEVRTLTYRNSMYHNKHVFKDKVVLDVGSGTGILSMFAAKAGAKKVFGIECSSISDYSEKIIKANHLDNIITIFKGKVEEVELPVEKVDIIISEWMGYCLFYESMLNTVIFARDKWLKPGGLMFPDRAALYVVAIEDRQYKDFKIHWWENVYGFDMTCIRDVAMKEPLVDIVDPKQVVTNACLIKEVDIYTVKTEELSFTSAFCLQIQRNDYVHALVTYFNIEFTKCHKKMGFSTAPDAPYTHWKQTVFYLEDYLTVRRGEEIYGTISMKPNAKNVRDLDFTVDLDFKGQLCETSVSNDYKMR
Chain of Protein arginine N-methyltransferase 3 (O60678 whole entry, the tested form may be a part): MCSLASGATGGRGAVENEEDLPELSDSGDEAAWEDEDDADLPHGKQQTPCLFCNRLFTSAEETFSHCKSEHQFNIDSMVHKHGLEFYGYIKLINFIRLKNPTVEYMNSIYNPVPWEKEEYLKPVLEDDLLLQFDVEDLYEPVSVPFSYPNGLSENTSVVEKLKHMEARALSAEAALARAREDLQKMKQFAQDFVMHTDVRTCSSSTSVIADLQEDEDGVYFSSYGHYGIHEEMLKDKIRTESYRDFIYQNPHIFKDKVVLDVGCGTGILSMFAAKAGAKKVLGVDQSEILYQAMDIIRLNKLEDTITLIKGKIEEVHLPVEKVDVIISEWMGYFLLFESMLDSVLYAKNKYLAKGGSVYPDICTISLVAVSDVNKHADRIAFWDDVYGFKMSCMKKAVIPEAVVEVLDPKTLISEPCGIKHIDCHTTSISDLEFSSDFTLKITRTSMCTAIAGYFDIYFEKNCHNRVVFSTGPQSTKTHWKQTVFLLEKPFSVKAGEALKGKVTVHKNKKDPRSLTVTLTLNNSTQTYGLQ
Chain of Protein arginine N-methyltransferase 1 (Q99873 whole entry, the tested form may be a part): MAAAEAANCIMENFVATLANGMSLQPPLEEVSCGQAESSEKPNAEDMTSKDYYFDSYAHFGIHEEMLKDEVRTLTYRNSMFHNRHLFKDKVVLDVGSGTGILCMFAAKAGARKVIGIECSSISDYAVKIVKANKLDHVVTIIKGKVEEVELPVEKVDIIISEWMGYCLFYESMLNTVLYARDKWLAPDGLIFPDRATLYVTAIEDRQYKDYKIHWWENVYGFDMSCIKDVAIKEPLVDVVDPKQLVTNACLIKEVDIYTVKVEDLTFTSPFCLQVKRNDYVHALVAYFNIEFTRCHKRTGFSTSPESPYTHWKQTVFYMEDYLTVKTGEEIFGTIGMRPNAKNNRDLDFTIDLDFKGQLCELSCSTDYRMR

As to `COc1cc(-c2nc(Nc3ccc4nc(C)cc(N)c4c3)c3sccc3n2)cc(OC)c1OC`, the IC50 in experiment [1], in [2], in experiment [3], in [4], in experiment [5] and in experiment [6] was greater than 100 µM each time.
On to `COc1cc(-c2ncc(F)c(Nc3ccc4nc(C)cc(N)c4c3)n2)cc(OC)c1OC`, for which the IC50 is 9.91 µM in experiment [7]; 1.47 µM in the experiment on DU-145 [8]; 1.32 µM with CWR22R; 1.13 µM in the experiment with PC-3; 1.66 µM in the experiment with VCaP. Further, the Kd in experiment [9] is 7.12 µM. Besides, the inhibition in vivo at 20 mg/kg in the experiment with DU-145 [10] is 40.3%.
For `COc1cc(-c2ccc3ncc(Nc4ccc(N(C)C)cc4)nc3c2)cc(OC)c1OC`, in [7], the IC50 turned out to be 26 µM.
